Drawing on US20260098030A1, “NEGATIVE ALLOSTERIC MODULATORS OF METABOTROPIC GLUTAMATE RECEPTOR 2” (Vanderbilt University, priority 2022, published 2026), this text covers IC50 for 30 compounds.

Experiment [1] deals with T1, human mGlu2 (Homo sapiens, UniProt Q14416).
T1 construct: expressed in transfected cells; host or cells: HEK-293 cells stably co-expressing GIRK channels
The experiment can be described thus: mGlu GIRK cell-based thallium flux assay, human mGlu2. The settings on record: HEK-293 cells co-expressing human mGlu2 and GIRK, EC80 glutamate. As to the method: Human embryonic kidney (HEK-293) cell lines stably co-expressing human or rat mGlu2 and G protein-coupled inwardly rectifying potassium (GIRK) channels, or human mGlu3 and GIRK, were used for in vitro evaluation of compound activity in thallium flux assay using a fluorescent thallium indicator dye.
The day before the assay, GIRK cells co-expressing human mGlu3, human or rat mGlu2, as described above, were plated in black-walled, clear-bottomed, amine-coated 384-well plates at a density of 15,000 cells/20 μL/well in the assay medium (glutamine-depleted basal DMEM supplemented with 10% dialyzed FBS, 20 mM HEPES, 1 mM sodium pyruvate). Cells were incubated at 37° C. in the presence of 5% CO2. The next day, assay buffer (Hanks balanced salt solution, 20 mM HEPES, 4.16 mM sodium bicarbonate, pH 7.2) was prepared to dilute compounds and Thallos AM fluorescent dye solution. The 2× Thallos dye solution (final concentration 0.34 μM to the cells) was prepared by mixing the dye stock (2.97 mM in DMSO) to 1:1 with 10% pluronic acid before adding to the assay buffer. Cells were washed with assay buffer using a microplate washer to remove the medium, resulting in 20 μL of buffer remaining in each well. Immediately, 20 μL of 2× Thallos dye solution was added to cells, and incubated for one hour at 25° C. During the cell dye loading incubation period, a 10-point concentration serial dilution of compound was created from a 10 mM DMSO compound stock by performing a 1:3 serial dilution in DMSO using the Bravo liquid handler. The 2× compound plate was generated by transferring 0.24 μL of the diluted compound in each well to a daughter plate using an Echo acoustic liquid handler. This is further diluted in 40 μL assay buffer, resulting in a range from 30 μM to 1.5 nM final concentration in the assay. The agonist plate (5×) was prepared to include EC80 glutamate concentration (a concentration to elicit 80% of a maximally effective glutamate concentration) in thallium buffer (125 mM […], 1 mM magnesium sulfate, 1.8 mM calcium sulfate, 5 mM glucose, 10 mM HEPES, pH 7.2, 12.5 mM thallium sulfate).
After dye-loading, cell plates were washed with assay buffer to remove excess extracellular dye using a microplate washer, resulting in 20 μL of buffer remaining in each well. After a ten-minute equilibration period, cell, compound and agonist plates were loaded into a Hamamatsu μCell kinetic imaging plate reader equipped with liquid handler to monitor fluorescence changes at 480 nm excitation and 540 nm emission settings. Briefly, after collection of baseline fluorescence, 20 μL of compound was added and incubated for two minutes and twenty seconds. This is immediately followed by adding 10 μL of glutamate-thallium buffer to the wells containing compound. The fluorescent signal was monitored an additional 2.5 minutes after the glutamate addition. Multiple reference wells containing no compound received either no glutamate (for a baseline reference), EC80 glutamate, or ECmax glutamate (for normalization to maximum response). Fluorescence was measured throughout the experiment at a frequency of 1 measurement per every 2 seconds before the glutamate addition and a frequency of 1 measurement per every 1 second after the glutamate addition. Each compound concentration series occurred one time in each plate, and replicates from two or three plates were used in each experimental run. Thallium solutions were handled and disposed of according to guidelines from the Vanderbilt University Chemical Safety department.
Data were normalized using a static ratio function (F/F0) by dividing every fluorescent measurement by the initial fluorescent value for the corresponding well. The increase in signal resulting from the glutamate/thallium addition of the second add was measured by determining the slope from 3 seconds to 13 seconds after the addition. […]

Experiment [2] addresses T2, rat mGlu2 (Rattus norvegicus, UniProt P31421).
T2 construct: expressed in transfected cells; host or cells: HEK-293 cells stably co-expressing GIRK channels
In words: mGlu GIRK cell-based thallium flux assay, rat mGlu2. The note with it: HEK-293 cells co-expressing rat mGlu2 and GIRK, EC80 glutamate. Summed up: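 HEK-293 cells stably co-expressing GIRK with human mGlu3, human mGlu2 or rat mGlu2 were loaded 1 h at 25° C with Thallos dye, then given compound (30 μM to 1.5 nM final, 10-point) for 2 min 20 s before EC80 glutamate plus thallium. Baseline-corrected fluorescence slope, normalized to ECmax glutamate, fitted to 4-parameter logistic for IC50.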

T1 sequence (Q14416 19-872): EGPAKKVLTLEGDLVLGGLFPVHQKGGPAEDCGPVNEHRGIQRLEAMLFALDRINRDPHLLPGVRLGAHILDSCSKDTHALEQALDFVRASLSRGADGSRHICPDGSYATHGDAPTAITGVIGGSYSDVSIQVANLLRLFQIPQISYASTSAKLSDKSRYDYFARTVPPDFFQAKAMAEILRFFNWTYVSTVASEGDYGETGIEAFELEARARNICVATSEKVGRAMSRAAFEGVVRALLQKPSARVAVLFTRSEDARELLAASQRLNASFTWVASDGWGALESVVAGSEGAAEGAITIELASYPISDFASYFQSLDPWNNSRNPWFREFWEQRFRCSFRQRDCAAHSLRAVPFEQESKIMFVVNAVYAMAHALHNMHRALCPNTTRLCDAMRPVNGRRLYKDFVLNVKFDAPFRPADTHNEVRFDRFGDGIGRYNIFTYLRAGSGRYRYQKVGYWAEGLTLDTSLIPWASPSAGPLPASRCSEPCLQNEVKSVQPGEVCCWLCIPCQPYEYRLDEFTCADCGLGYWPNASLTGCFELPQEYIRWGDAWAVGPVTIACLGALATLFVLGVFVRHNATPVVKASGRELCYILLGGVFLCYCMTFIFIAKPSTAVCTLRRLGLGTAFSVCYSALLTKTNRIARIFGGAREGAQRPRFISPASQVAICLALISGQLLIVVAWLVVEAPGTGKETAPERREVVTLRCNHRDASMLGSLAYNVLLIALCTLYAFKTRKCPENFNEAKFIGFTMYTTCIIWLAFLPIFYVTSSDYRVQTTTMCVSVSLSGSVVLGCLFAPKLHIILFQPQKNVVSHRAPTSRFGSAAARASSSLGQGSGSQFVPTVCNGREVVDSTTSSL
T2 sequence (P31421 19-872): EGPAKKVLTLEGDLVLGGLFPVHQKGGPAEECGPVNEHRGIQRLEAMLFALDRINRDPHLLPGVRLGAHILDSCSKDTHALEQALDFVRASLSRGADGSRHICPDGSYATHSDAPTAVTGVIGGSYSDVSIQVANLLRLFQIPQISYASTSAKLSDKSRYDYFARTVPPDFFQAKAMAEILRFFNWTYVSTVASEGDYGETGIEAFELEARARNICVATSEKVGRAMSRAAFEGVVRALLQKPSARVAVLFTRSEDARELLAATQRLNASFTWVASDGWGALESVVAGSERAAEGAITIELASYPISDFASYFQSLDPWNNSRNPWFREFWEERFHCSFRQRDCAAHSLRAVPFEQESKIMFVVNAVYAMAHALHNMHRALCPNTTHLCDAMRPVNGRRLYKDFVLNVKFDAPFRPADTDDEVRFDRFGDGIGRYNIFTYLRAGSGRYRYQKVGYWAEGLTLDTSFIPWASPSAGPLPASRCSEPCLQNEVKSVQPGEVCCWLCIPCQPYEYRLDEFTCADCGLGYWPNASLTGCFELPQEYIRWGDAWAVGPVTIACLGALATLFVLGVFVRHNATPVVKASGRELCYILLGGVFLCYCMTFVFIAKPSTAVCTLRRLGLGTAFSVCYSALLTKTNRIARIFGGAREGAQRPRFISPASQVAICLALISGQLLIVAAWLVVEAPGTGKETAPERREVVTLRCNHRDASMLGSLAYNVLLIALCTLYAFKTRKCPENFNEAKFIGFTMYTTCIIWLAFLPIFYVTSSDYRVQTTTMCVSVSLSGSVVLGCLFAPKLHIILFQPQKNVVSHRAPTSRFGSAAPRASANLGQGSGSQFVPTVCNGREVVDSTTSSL

For `CCn1cc(-c2cc3c(cc2-c2ccc(F)cc2F)C(=O)NC3)cn1` [Compound 134, 6-(2,4-difluorophenyl)-5-(1-ethyl-1H-pyrazol-4-yl)isoindolin-1-one], in experiment [1], the IC50 is 2350 nM.

The compound `N#Cc1cccc(-c2cc3c(cc2-c2ccccc2F)C(=O)NC3)c1` [Compound 159, 3-(6-(2-fluorophenyl)-1-oxoisoindolin-5-yl)benzonitrile] showed an IC50 in experiment [1] of 1720 nM.

As to `N#Cc1cccc(-c2cc3c(cc2-c2ccc(C(F)(F)F)cc2F)C(=O)NC3)c1` [Compound 144, 3-(6-(2-fluoro-4-(trifluoromethyl)phenyl)-1-oxoisoindolin-5-yl)benzonitrile], the IC50 in experiment [1] was found to be 3070 nM. Against the preceding compound, the IC50 is about 1.8-fold higher.

In the case of `N#Cc1cccc(-c2cc3c(cc2-c2ccc(F)cc2Cl)C(=O)NC3)c1` [Compound 169, 3-(6-(2-chloro-4-fluorophenyl)-1-oxoisoindolin-5-yl)benzonitrile], in experiment [1], the 50% inhibitory concentration (IC50) is 2250 nM.

As for `COc1c(F)cc(-c2cc3c(cc2-c2cccc(C#N)c2)CNC3=O)cc1F` [Compound 182, 3-(6-(3,5-difluoro-4-methoxyphenyl)-1-oxoisoindolin-5-yl)benzonitrile], the IC50 in experiment [1] is more than 10000 nM.

The compound `CS(=O)(=O)c1ccccc1-c1cc2c(cc1-c1ccc(F)cc1F)C(=O)NC2` [Compound 128, 6-(2,4-difluorophenyl)-5-(2-(methylsulfonyl)phenyl)isoindolin-1-one] registered an IC50 in experiment [1] of 3410 nM.

In the case of `CC(=O)Nc1ccccc1-c1cc2c(cc1-c1ccc(F)cc1F)C(=O)NC2` [Compound 120, N-(2-(6-(2,4-difluorophenyl)-1-oxoisoindolin-5-yl)phenyl)acetamide], the IC50 in experiment [1] was 1050 nM. This IC50 is about 3.2-fold lower than that of the compound before.

On to `O=C1NCc2cc(-c3cnn(CC(F)(F)F)c3)c(-c3ccc(F)cc3F)cc21` [Compound 131, 6-(2,4-difluorophenyl)-5-(1-(2,2,2-trifluoroethyl)-1H-pyrazol-4-yl)isoindolin-1-one], for which, in experiment [1], the IC50 is 366 nM.

As to `Cc1cc(F)ccc1-c1cc2c(cc1-c1cccc(C#N)c1)CNC2=O` [Compound 143, 3-(6-(4-fluoro-2-methylphenyl)-1-oxoisoindolin-5-yl)benzonitrile], the midpoint of inhibition in experiment [1], the IC50, lay at 1670 nM.

As for `Cn1cc(S(=O)(=O)Nc2ccccc2-c2cc3c(cc2-c2ccc(F)cc2F)C(=O)NC3)cn1` [Compound 165, N-(2-(6-(2,4-difluorophenyl)-1-oxoisoindolin-5-yl)phenyl)-1-methyl-1H-pyrazole-4-sulfonamide], the IC50 in experiment [1] amounted to 637 nM.

`N#Cc1cccc(-c2cc3c(cc2-c2ccc(F)c(F)c2)C(=O)NC3)c1` [Compound 158, 3-(6-(3,4-difluorophenyl)-1-oxoisoindolin-5-yl)benzonitrile]: in experiment [1], the IC50 was 3730 nM.

On to `Cc1ccc(C#N)cc1-c1cc2c(cc1-c1cccc(C#N)c1)CNC2=O` [Compound 188, 3-(6-(3-cyanophenyl)-3-oxoisoindolin-5-yl)-4-methylbenzonitrilc], for which the IC50 in experiment [1] is more than 10000 nM.

`CNC(=O)c1ccc(F)c(-c2cc3c(cc2-c2ccc(F)cc2F)C(=O)NC3)c1` [Compound 121, 3-(6-(2,4-difluorophenyl)-1-oxoisoindolin-5-yl)-4-fluoro-N-methylbenzamide] showed an IC50 in experiment [1] of 1440 nM.

For `N#Cc1cccc(CCc2cc3c(cc2-c2ccc(F)cc2F)C(=O)NC3)c1` [Compound A4, 3-(2-(6-(2,4-difluorophenyl)-1-oxoisoindolin-5-yl)ethyl)benzonitrile], the midpoint of inhibition in experiment [1], the IC50, lay at 481 nM.

In turn, `N#Cc1ccccc1-c1cc2c(cc1-c1ccc(F)cc1F)C(=O)NC2` [Compound 124, 2-(6-(2,4-difluorophenyl)-1-oxoisoindolin-5-yl)benzonitrile] registered an IC50 in experiment [1] of 496 nM.

On to `CS(=O)(=O)Nc1cccc(-c2cc3c(cc2-c2ccc(F)cc2F)C(=O)NC3)c1` [Compound 116, N-(3-(6-(2,4-difluorophenyl)-1-oxoisoindolin-5-yl)phenyl)methanesulfonamide], for which the IC50 in experiment [1] amounted to 931 nM.

In experiment [1], `Cc1ncc(S(=O)(=O)Nc2ccccc2-c2cc3c(cc2-c2ccc(F)cc2F)C(=O)NC3)s1` [Compound 164, N-(2-(6-(2,4-difluorophenyl)-1-oxoisoindolin-5-yl)phenyl)-2-methylthiazole-5-sulfonamide] yielded an IC50 of 955 nM.

For the compound `N#Cc1cccc(-c2cc3c(cc2-c2cc(F)ccc2C#N)C(=O)NC3)c1` [Compound 187, 2-(6-(3-cyanophenyl)-3-oxoisoindolin-5-yl)-4-fluorobenzonitrile], it took 9580 nM to reach half-maximal inhibition in experiment [1] (IC50).

For `Nc1ccccc1-c1cc2c(cc1-c1ccc(F)cc1F)C(=O)NC2` [Compound 137, 5-(2-aminophenyl)-6-(2,4-difluorophenyl)isoindolin-1-one], 816 nM corresponded to half-maximal inhibition in experiment [1] (IC50).

`O=C1NCc2cc(CCc3ccn(C4CC4)n3)c(-c3ccc(F)cc3F)cc21` [Compound A8, 5-(2-(1-cyclopropyl-1H-pyrazol-3-yl)ethyl)-6-(2,4-difluorophenyl)isoindolin-1-one]: in experiment [1], the IC50 was found to be 413 nM.

The compound `CNC(=O)c1cc(Cl)cc(-c2cc3c(cc2-c2ccc(F)cc2F)C(=O)NC3)c1` [Compound 117, 3-chloro-5-(6-(2,4-difluorophenyl)-1-oxoisoindolin-5-yl)-N-methylbenzamide] yielded an IC50 in experiment [1] of 737 nM.

`CS(=O)(=O)c1cccc(-c2cc3c(cc2-c2ccc(F)cc2F)C(=O)NC3)c1` [Compound 122, 6-(2,4-difluorophenyl)-5-(3-(methylsulfonyl)phenyl)isoindolin-1-one]: it took 1290 nM to reach half-maximal inhibition in experiment [1] (IC50).

Consider `Cn1nc(CCc2cc3c(cc2-c2ccc(F)cc2F)C(=O)NC3)cc1C#N` [Compound A9, 3-(2-(6-(2,4-difluorophenyl)-1-oxoisoindolin-5-yl)ethyl)-1-methyl-1H-pyrazole-5-carbonitrile], for which 273 nM corresponded to half-maximal inhibition in experiment [1] (IC50).

With `O=C1NCc2cc(-c3cnn(CCN4CCOCC4)c3)c(-c3ccc(F)cc3F)cc21` [Compound 154, 6-(2,4-difluorophenyl)-5-(1-(2-morpholinoethyl)-1H-pyrazol-4-yl)isoindolin-1-one], in experiment [1], the IC50 was more than 10000 nM.

Consider `N#Cc1cccc(-c2cc3c(cc2-c2cc(F)cc(C#N)c2)C(=O)NC3)c1` [Compound 189, 3-(6-(3-cyanophenyl)-3-oxoisoindolin-5-yl)-5-fluorobenzonitrile], for which, in experiment [1], the IC50 was more than 10000 nM.

In turn, `N#Cc1ccc(-n2cc(-c3cc4c(cc3-c3ccc(F)cc3F)C(=O)NC4)cn2)cc1` [Compound 111, 4-(4-(6-(2,4-difluorophenyl)-1-oxoisoindolin-5-yl)-1H-pyrazol-1-yl)benzonitrile] yielded an IC50 in experiment [2] of more than 10000 nM.

In experiment [2], `CN1CCCC(c2cc3c(cc2-c2ccc(F)cc2)C(=O)NC3)C1` (stereo not drawn) [Compound 65, 6-(4-fluorophenyl)-5-(1-methylpiperidin-3-yl)isoindolin-1-one] yielded an IC50 of more than 10000 nM.

On to `O=C1NCc2cc(-c3ccc(C(F)(F)F)nc3)c(-c3ccc(F)cc3F)cc21` [Compound 79, 6-(2,4-difluorophenyl)-5-(6-(trifluoromethyl)pyridin-3-yl)isoindolin-1-one], for which half-maximal inhibition in experiment [2] (IC50) was put at 1860 nM.

Consider `CC1CNCCC1c1cc2c(cc1-c1ccc(F)cc1)C(=O)NC2` (stereo not drawn) [Compound 77, 6-(4-fluorophenyl)-5-(3-methylpiperidin-4-yl)isoindolin-1-one], for which the IC50 in experiment [2] is more than 10000 nM.

In turn, `CC(C)(O)c1ccc(-c2cc3c(cc2-c2ccc(F)cc2)C(=O)NC3)cn1` [Compound 50, 6-(4-fluorophenyl)-5-(6-(2-hydroxypropan-2-yl)pyridin-3-yl)isoindolin-1-one] had an IC50 in experiment [2] of more than 10000 nM.

The IC50 is the concentration needed to halve the response being measured. Lower therefore signals higher potency.
